Laboratory results published in patent US20050069541A1, “Composition for and treatment of demyelinating diseases and paralysis by administration of remyelinating agents” (priority 2003, published 2005).
“Also recorded” adds a separate entry of the source.

Experiments:
[1] = system: EAE in female Hartley guinea pigs
[2] = system: guinea pig model of CP-EAE; test: Remyelination and motor function in guinea pig CP-EAE; type: in vivo
Source text: The number of lesions showing myelin pallor was divided by the total number of lesions within cross sections of spinal cord taken throughout its length from each animal (FIG. 10) (for the method see Warrington et al., 2000, Proc. Nat'l Acad. Sci. USA 97: 6820-5). […] In contrast, after 20 days of N-[N-(3-pyridinesulfonyl)-L-3,3-dimethyl-4-thiaprolyl]-O-[1-methylpiperazin-4-ylcarbonyl]-L-tyrosine isopropyl ester administration, the frequency of shadow plaques in the spinal cord was increased over saline-treated animals, reaching 68%; after 30 and 40 days, the incidence was 77% and 87%, respectively (p<0.001, 2-way ANOVA with Tukey test).
The overall degree of plaque remyelination in the spinal cord was also measured. […] Total lesion area was determined for each animal by tracing all lesions within all spinal cord sections and summing the areas. Likewise, the total area of remyelination was measured by tracing regions of myelin pallor. FIGS. 10C-F plot the total lesion area against the percentage of remyelination. In saline-treated animals, lesions rarely show any evidence of repair, with means ranging between 2 and 11%, and there were no significant differences over the 40-day treatment period (FIGS. 10C-F). In contrast, after 20, 30 or 40 days of N-[N-(3-pyridinesulfonyl)-L-3,3-dimethyl-4-thiaprolyl]-O-[1-methylpiperazin-4-ylcarbonyl]-L-tyrosine isopropyl ester treatment, the majority of lesions identified show a variable degree of remyelination ranged from 2 to 100% in the majority of lesions (mean area of remyelination approximately 50%) (FIGS. 10D-5). (p<0.001, 2-way ANOVA with Tukey test). Therefore while lesions were evident in all animals throughout the 40-day treatment period, N-[N-(3-pyridinesulfonyl)-L-3,3-dimethyl-4-thiaprolyl]-O-[1-methylpiperazin-4-ylcarbonyl]-L-tyrosine isopropyl ester increased the incidence and percentage of remyelination. Furthermore, evidence of remyelination in N-[N-(3-pyridinesulfonyl)-L-3,3-dimethyl-4-thiaprolyl]-O-[1-methylpiperazin-4-ylcarbonyl]-L-tyrosine isopropyl ester-treated animals is consistent with an observed regain of motor function. The starting point for treatment was a clinical score of 2, which denotes full bilateral hind limb paralysis. […] Functional recovery was never observed in control animals.

[3] = system: brain and spinal cord of EAE guinea pigs; test: Chronic EAE: histology and blinded pathological scoring of brain and spinal cord sections (H-E, SCR); type: in vivo, guinea pig
Procedure: Animal Sacrifice and Histological Analysis. Untreated, chronic EAE animals (n=5) were sacrificed on day 40, as well as non-EAE controls (n=5). Following each 10-day treatment interval, 5 animals from each group were sacrificed (0.25 mL sodium pentobarbital), blood samples were collected for FACS analysis (see below), and the brain and spinal cord dissected and sectioned. Three spinal sections were used, corresponding to lumbar, thoracic and cervical regions of the cord. The brain was cut into five transverse sections. The first three proximal sections were combined in one block, and the last two distal sections in another. Tissues were fixed in 10% formalin and embedded in paraffin. […] sections were stained with hematoxylin-eosin (H-E) or solochrome-R-cyanlin (SCR) and evaluated by a blinded observer in each of four categories: (1) meningeal inflammation, (2) perivascular infiltration, (3) encephalitis or (4) myelitis and demyelination (Table 6). The combined pathological score represents the total score (out of a potential 20) from all 5 CNS sections in each animal.

[4] = system: infiltrating cells in spinal cord; test: Chronic EAE: mean cell counts in spinal cord (H-E sections, 0.12 mm^2 fields); type: in vivo, guinea pig; settings: for Mean # Cells/0.12 mm^2: spinal cord
Procedure: To quantify the abnormalities observed in the spinal cord, sections stained with H-E were divided into 12 representative pie-shaped areas. In each area, the number of cells within a 0.12 mm^2 field of view was counted using Sigma Scan Pro image analysis software (SPSS Inc.), and the combined mean number of cells in all 12 areas was calculated for the whole spinal cord (36 fields of view per animal). Note that as all cell nuclei were counted, the number of cells may include neurons and glial cells in addition to infiltrates.

IL-2, IL-10, MCP-1 RNA = test: Chronic EAE: quantitative RT-PCR of spinal cord; type: in vivo, guinea pig
Procedure: Quantitative Reverse Transcription-PCR: IL-2, IL-10, MCP-1. RNA was isolated from 30 mg of frozen guinea pig spinal cord using the S.N.A.P.™ (simple nucleic acid preparation) total RNA Isolation Kit (Invitrogen) according to manufacturer's instructions, modified to include a second DNAse treatment step followed by an additional purification over the S.N.A.P. column.
Primer/probe sequences and concentrations for IL-2, IL-10, and MCP-1 are given in Table 7, as well as the standard RNA used for each gene. RT-PCR was carried out in triplicate using the ABI PRISM® 7700 Sequence Detection System. 50 μl reactions contained 10 to 800 ng of total RNA and primers and probes at the concentrations indicated above in reaction buffer consisting of 6.67% glycerol (Amresco); 5.5 mM MgCl; 300 μM DATP, dCTP, dGTP, and dUTP; 100 nM probe; 1.25 unit of AmpliTaq Gold® DNA Polymerase (Applied Biosystems); 1× TaqMan® Buffer A (TaqMan® PCR Core reagents kit, Applied Biosystems), 20 units of RNase Inhibitor (Roche); 1.25 unit of murine leukemia virus (MuLV) Reverse Transcriptase (Applied Biosystems). Reverse-transcription of RNA was carried out at 48° C. for 30 min., followed by a 10 min. denaturing step at 95° C. PCR was carried out by 40 thermo-cycles consisting of 95° C. for 15 seconds followed by 60° C. for 1 minute. Each plate included a standard curve using the standard RNA listed in Table 7 and two additional control samples: 1) a positive control RNA sample used on all plates, 2) a non-template control (NTC).
The correlation coefficients of the standard curves were greater than 0.990 for all data shown. The coefficients of variation for sample triplicates were less than 0.2. Since the RNA used for the standard curve is a heterogeneous mix of RNA containing a constant but unknown amount of the target message, the numbers calculated are relative.

[5] = system: guinea pig model of CP-EAE; settings: with increasing duration of treatment; Piraino et al., 2002; cited from earlier work

CC(C)OC(=O)[C@H](Cc1ccc(OC(=O)N2CCN(C)CC2)cc1)NC(=O)[C@H]1N(S(=O)(=O)c2cccnc2)CSC1(C)C [N-[N-(3-pyridinesulfonyl)-L-3,3-dimethyl-4-thiaprolyl]-O-[1-methylpiperazin-4-ylcarbonyl]-L-tyrosine isopropyl ester]
start of clinical reversal following the initial treatment ([1]; 30 mg/kg 2x/day s.c.): 2 to 3 days
mean clinical score over the treatment period versus saline ([1]; 30 mg/kg 2x/day s.c. from day 40 for 10-40 days, p<0.001 Mann Whitney): significantly lower
mean clinical score day 70-80 after withdrawal (30 days treatment, 10 days off) versus continuous treatment ([1]; n=5, p<0.05 Mann Whitney): significantly greater
clinical score reached during treatment in animals with an established clinical score of 2 ([1]; several animals, paresis reversed): 1
escape from treatment ([1]; up to 40 days of treatment): None of the animals, however, escaped from treatment
mean area of remyelination ([2]; after 20, 30 or 40 days of treatment): approximately 50%
percentage of plaques exhibiting evidence of remyelination (frequency of shadow plaques in the spinal cord) ([2]; after 20 days of administration): 68%
percentage of plaques exhibiting evidence of remyelination (incidence) ([2]; after 30 days): 77%
percentage of plaques exhibiting evidence of remyelination (incidence) ([2]; after 40 days): 87%
treated animals in which paralysis was reversed to a clinical score of 1 ([2]; treatment started at clinical score of 2): 50%
mean pathological score in each of four categories versus saline ([3]; meningeal inflammation, perivascular infiltration, encephalitis/myelitis, demyelination, p<0.001 two-way ANOVA): significant decrease
mean combined pathological score after withdrawal for 10 days versus continued treatment ([3]; p<0.05 Kruskal Wallis): significantly higher
spinal cord histology after 20 days of treatment (day 60) ([3]; versus saline): much smaller areas of demyelination
spinal cord histology after 40 days of treatment (day 80) ([3]; versus saline): almost no meningeal and perivascular infiltration
cell number in spinal cord versus saline-treated animals ([4]; after 10, 20, 30 or 40 days, p<0.001 two-way ANOVA): significant reduction
mean cell counts versus chronic (d40) control EAE animals ([4]; after 20, 30 or 40 days, p<0.05): significantly lower
mean cell count in spinal cord versus non-EAE animals ([4]; after 40 days of treatment): not different
mean cell count after removal of compound for 10 days versus continuous treatment ([4]; p<0.05): significant increase
rate of cell loss from spinal cord ([4]; slope of linear regression of mean cell counts, r^2=0.90): 8 cells/mm^2/day
Mean # Cells/0.12 mm^2 ([4]; D50 (10 days of treatment)): 97 ± 3.9 cells/0.12 mm^2
Mean # Cells/0.12 mm^2 ([4]; D60 (20 days of treatment)): 86 ± 4.2 cells/0.12 mm^2
Mean # Cells/0.12 mm^2 ([4]; D70 (30 days of treatment)): 89 ± 8 cells/0.12 mm^2
Mean # Cells/0.12 mm^2 ([4]; D80 (40 days of treatment)): 70 ± 4 cells/0.12 mm^2
cytokine RNA after withdrawal of compound (IL-2, IL-10, MCP-1 RNA; 10 days after withdrawal): returned to levels comparable to saline-treated animals
IL-2 RNA in spinal cord during treatment (IL-2, IL-10, MCP-1 RNA; lumbar spinal cord): almost no detectable IL-2 RNA
inflammatory cytokine RNA (IL-2, IL-10, MCP-1) during treatment (IL-2, IL-10, MCP-1 RNA; lumbar spinal cord, versus saline): significant reduction; also recorded: marked decrease
immune cell infiltrates and associated inflammatory mediators [5]: progressively reduce immune cell infiltrates
